Data taken from patent publication US6737383B1, “Herbicidal oxadiazolidines” (priority 1999, dated 2004).

Key:
pigweed = assay: Test B pre/postemergence pigweed; type: in vivo, Amaranthus retroflexus; conditions: for Plant response rating, Redroot pigweed: Rate 250 g/ha
How it was run: (§1)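 Test chemicals in a non-phytotoxic solvent mixture with surfactant were sprayed preemergence onto planted seeds and postemergence onto plants 2 to 18 cm tall (1- to 4-leaf stage). After twelve to sixteen days in a greenhouse, injury was visually rated against untreated controls from 0 (no effect) to 10 (complete control).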

giant foxtail = assay: Test B pre/postemergence giant foxtail; type: in vivo, Setaria faberii; conditions: for Plant response rating, Giant foxtail: Rate 250 g/ha
How it was run: as §1

velvetleaf = assay: Test B pre/postemergence velvetleaf; type: in vivo, Abutilon theophrasti; conditions: for Plant response rating, Velvetleaf: Rate 250 g/ha
How it was run: as §1

rice = assay: Test B flood test rice; type: in vivo, Oryza sativa
How it was run: (§2)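 Plants were grown to the 2-leaf stage before treatment with test chemical, then held in a greenhouse for twelve to sixteen days. Injury was visually rated against untreated controls on a 0–10 scale, where 0 is no effect and 10 is complete control.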

duck salad = assay: Test B flood test duck salad; type: in vivo, Heteranthera limosa
How it was run: as §2

crabgrass = assay: Test B pre/postemergence crabgrass; type: in vivo, Digitaria sanguinalis; conditions: for Plant response rating, Crabgrass: Rate 250 g/ha
How it was run: as §1

wild oat = assay: Test B pre/postemergence wild oat; type: in vivo, Avena fatua; conditions: for Plant response rating, Wild oats: Rate 250 g/ha
How it was run: as §1

cocklebur = assay: Test B pre/postemergence cocklebur; type: in vivo, Xanthium strumarium; conditions: for Plant response rating, Cocklebur: Rate 250 g/ha
How it was run: as §1

bamyardgrass = assay: Test B flood test barnyardgrass; type: in vivo, Echinochloa crus-galli
How it was run: as §2

sugar beet = assay: Test B pre/postemergence sugar beet; type: in vivo, Beta vulgaris; conditions: for Plant response rating, Sugarbeets: Rate 250 g/ha
How it was run: as §1

morningglory = assay: Test B pre/postemergence morningglory; type: in vivo, Ipomoea hederacea; conditions: for Plant response rating, Morningglory: Rate 250 g/ha
How it was run: as §1

purple nutsedge = assay: Test B pre/postemergence purple nutsedge; type: in vivo, Cyperus rotundus; conditions: for Plant response rating, Nutsedge: Rate 250 g/ha
How it was run: as §1

wheat = assay: Test B pre/postemergence wheat; type: in vivo, Triticum aestivum; conditions: for Plant response rating, Wheat: Rate 250 g/ha
How it was run: as §1

soybean = assay: Test B pre/postemergence soybean; type: in vivo, Glycine max; conditions: for Plant response rating, Soybean: Rate 250 g/ha
How it was run: as §1

rape = assay: Test B pre/postemergence rape; type: in vivo, Brassica napus; conditions: for Plant response rating, Rape: Rate 250 g/ha
How it was run: as §1

corn = assay: Test B pre/postemergence corn; type: in vivo, Zea mays; conditions: for Plant response rating, Corn: Rate 250 g/ha
How it was run: as §1

[1] = Postemergence, Rate 125 g/ha, scale of 0 to 10 where 0 is no effect and 10 is complete control
[2] = Preemergence, Rate 62 g/ha, scale 0 to 10 (0 no effect, 10 complete control)
[3] = Preemergence, Rate 125 g/ha, 0 is no effect, 10 is complete control
[4] = Preemergence, scale of 0 to 10 where 0 is no effect and 10 is complete control
[5] = Preemergence, Rate 500 g/ha, scale 0 to 10 (0 no effect, 10 complete control)
[6] = Rate 62 g/ha, Postemergence, scale of 0 to 10 where 0 is no effect and 10 is complete control
[7] = Postemergence, scale 0 to 10, 0 is no effect, 10 is complete control
[8] = Rate 500 g/ha, Postemergence, scale 0 to 10, 0 no effect, 10 complete control
[9] = Postemergence (flood test species), Rate 125 g/ha, scale of 0 to 10 where 0 is no effect and 10 is complete control
[10] = Rate 62 g/ha, Postemergence section, flood test species, scale of 0 to 10 where 0 is no effect and 10 is complete control
[11] = Rate 250 g/ha, Postemergence (flood test), scale 0 to 10, 0 is no effect, 10 is complete control
[12] = Rate 250 g/ha, headed Pre-emergence (flood test species), scale 0 to 10 (0 no effect, 10 complete control)
[13] = Rate 500 g/ha, headed Pre-emergence (flood test species), scale 0 to 10 (0 no effect, 10 complete control)
[14] = Rate 500 g/ha, listed under Postemergence (flood test species), scale 0 to 10, 0 no effect, 10 complete control
[15] = Rate 1000 g/ha, Pre-emergence (as headed), scale 0 to 10
[16] = Rate 2000 g/ha, Pre-emergence (as headed), scale 0 to 10

CC(C)N(C(=O)n1oc(=O)n(-c2cnn(C)c2Cl)c1=O)c1ccccc1 [Compound 122]
Redroot pigweed plant response rating (pigweed; [1]): 1 | Redroot pigweed plant response rating (pigweed; [2]): 0 | Redroot pigweed plant response rating (0 to 10 scale) (pigweed; [3]): 5 | Plant response rating, Redroot pigweed (pigweed; [4]): 8 | Redroot pigweed plant response rating (pigweed; [5]): 8 | Redroot pigweed plant response rating (pigweed; [6]): 0 | Plant response rating, Redroot pigweed (pigweed; [7]): 2 | Redroot pigweed plant response rating (pigweed; [8]): 5 | Giant foxtail plant response rating (giant foxtail; [1]): 2 | Giant foxtail plant response rating (giant foxtail; [2]): 7 | Giant foxtail plant response rating (0 to 10 scale) (giant foxtail; [3]): 9 | Plant response rating, Giant foxtail (giant foxtail; [4]): 9 | Giant foxtail plant response rating (giant foxtail; [5]): 9 | Giant foxtail plant response rating (giant foxtail; [6]): 2 | Plant response rating, Giant foxtail (giant foxtail; [7]): 6 | Giant foxtail plant response rating (giant foxtail; [8]): 9 | Velvetleaf plant response rating (velvetleaf; [1]): 0 | Velvetleaf plant response rating (velvetleaf; [2]): 0 | Velvetleaf plant response rating (0 to 10 scale) (velvetleaf; [3]): 0 | Plant response rating, Velvetleaf (velvetleaf; [4]): 0 | Velvetleaf plant response rating (velvetleaf; [5]): 3 | Velvetleaf plant response rating (velvetleaf; [6]): 0 | Plant response rating, Velvetleaf (velvetleaf; [7]): 3 | Velvetleaf plant response rating (velvetleaf; [8]): 3 | Rice plant response rating (rice; [9]): 0 | Rice plant response rating (rice; [10]): 0 | Plant response rating, Rice (rice; [11]): 0 | Rice plant response rating (rice; [12]): 0 | Plant response rating, Rice (rice; [13]): 0 | Rice plant response rating (rice; [14]): 0 | Rice plant response rating (rice; [15]): 0 | Rice plant response rating (rice; [16]): 0 | Ducksalad plant response rating (duck salad; [9]): 0 | Ducksalad plant response rating (duck salad; [10]): 0 | Plant response rating, Ducksalad (duck salad; [11]): 0 | Ducksalad plant response rating (duck salad; [12]): 0 | Plant response rating, Ducksalad (duck salad; [13]): 0 | Ducksalad plant response rating (duck salad; [14]): 0 | Ducksalad plant response rating (duck salad; [15]): 0 | Ducksalad plant response rating (duck salad; [16]): 0 | Crabgrass plant response rating (crabgrass; [1]): 3 | Crabgrass plant response rating (crabgrass; [2]): 4 | Crabgrass plant response rating (0 to 10 scale) (crabgrass; [3]): 4 | Plant response rating, Crabgrass (crabgrass; [4]): 8 | Crabgrass plant response rating (crabgrass; [5]): 8 | Crabgrass plant response rating (crabgrass; [6]): 0 | Plant response rating, Crabgrass (crabgrass; [7]): 4 | Crabgrass plant response rating (crabgrass; [8]): 5 | Wild oats plant response rating (wild oat; [1]): 0 | Wild oats plant response rating (wild oat; [2]): 0 | Wild oats plant response rating (0 to 10 scale) (wild oat; [3]): 0 | Plant response rating, Wild oats (wild oat; [4]): 3 | Wild oats plant response rating (wild oat; [5]): 5 | Wild oats plant response rating (wild oat; [6]): 0 | Plant response rating, Wild oats (wild oat; [7]): 0 | Wild oats plant response rating (wild oat; [8]): 0 | Cocklebur plant response rating (cocklebur; [1]): 2 | Cocklebur plant response rating (cocklebur; [2]): 0 | Plant response rating, Cocklebur (cocklebur; [4]): 0 | Cocklebur plant response rating (cocklebur; [6]): 0 | Plant response rating, Cocklebur (cocklebur; [7]): 3 | Cocklebur plant response rating (cocklebur; [8]): 3 | Barnyardgrass plant response rating (bamyardgrass; [9]): 0 | Barnyardgrass plant response rating (bamyardgrass; Postemergence, Rate 62 g/ha, scale 0 to 10, 0 is no effect, 10 is complete control): 0 | Plant response rating, Barnyardgrass (bamyardgrass; [11]): 0 | Barnyardgrass plant response rating (bamyardgrass; [12]): 0 | Plant response rating, Barnyardgrass (bamyardgrass; [13]): 0 | Barnyardgrass plant response rating (bamyardgrass; [14]): 0 | Barnyardgrass plant response rating (bamyardgrass; [15]): 0 | Barnyardgrass plant response rating (bamyardgrass; Rate 2000 g/ha, Pre-emergence (as headed), scale 0 to 10, 0 no effect, 10 complete control): 0 | Sugarbeets plant response rating (sugar beet; [1]): 0 | Sugarbeets plant response rating (sugar beet; [2]): 0 | Sugarbeets plant response rating (0 to 10 scale) (sugar beet; [3]): 0 | Plant response rating, Sugarbeets (sugar beet; [4]): 0 | Sugarbeets plant response rating (sugar beet; [5]): 4 | Sugarbeets plant response rating (sugar beet; [6]): 0 | Plant response rating, Sugarbeets (sugar beet; [7]): 0 | Sugarbeets plant response rating (sugar beet; [8]): 2 | Morningglory plant response rating (morningglory; [1]): 3 | Morningglory plant response rating (morningglory; [2]): 0 | Morningglory plant response rating (0 to 10 scale) (morningglory; [3]): 0 | Plant response rating, Morningglory (morningglory; [4]): 0 | Morningglory plant response rating (morningglory; [5]): 0 | Morningglory plant response rating (morningglory; [6]): 1 | Plant response rating, Morningglory (morningglory; [7]): 4 | Morningglory plant response rating (morningglory; [8]): 4 | Nutsedge plant response rating (purple nutsedge; [1]): 0 | Nutsedge plant response rating (purple nutsedge; [2]): 0 | Nutsedge plant response rating (0 to 10 scale) (purple nutsedge; [3]): 0 | Plant response rating, Nutsedge (purple nutsedge; [4]): 0 | Nutsedge plant response rating (purple nutsedge; [5]): 0 | Nutsedge plant response rating (purple nutsedge; [6]): 0 | Plant response rating, Nutsedge (purple nutsedge; [7]): 0 | Nutsedge plant response rating (purple nutsedge; [8]): 0 | Wheat plant response rating (wheat; [1]): 0 | Wheat plant response rating (wheat; [2]): 0 | Wheat plant response rating (0 to 10 scale) (wheat; [3]): 0 | Plant response rating, Wheat (wheat; [4]): 0 | Wheat plant response rating (wheat; [5]): 0 | Wheat plant response rating (wheat; [6]): 0 | Plant response rating, Wheat (wheat; [7]): 0 | Wheat plant response rating (wheat; [8]): 0 | Soybean plant response rating (soybean; [1]): 3 | Soybean plant response rating (soybean; [2]): 0 | Soybean plant response rating (0 to 10 scale) (soybean; [3]): 0 | Plant response rating, Soybean (soybean; [4]): 0 | Soybean plant response rating (soybean; [5]): 0 | Soybean plant response rating (soybean; [6]): 3 | Plant response rating, Soybean (soybean; [7]): 3 | Soybean plant response rating (soybean; [8]): 5 | Rape plant response rating (rape; [1]): 0 | Rape plant response rating (rape; [2]): 0 | Rape plant response rating (0 to 10 scale) (rape; [3]): 0 | Plant response rating, Rape (rape; [4]): 0 | Rape plant response rating (rape; [5]): 3 | Rape plant response rating (rape; [6]): 0 | Plant response rating, Rape (rape; [7]): 3 | Rape plant response rating (rape; [8]): 4 | Corn plant response rating (corn; [1]): 0 | Corn plant response rating (corn; [2]): 0 | Corn plant response rating (0 to 10 scale) (corn; [3]): 0 | Plant response rating, Corn (corn; [4]): 0 | Corn plant response rating (corn; [5]): 0 | Corn plant response rating (corn; [6]): 0 | Plant response rating, Corn (corn; [7]): 0 | Corn plant response rating (corn; [8]): 0
